Source: PubChem BioAssay AID643 (Vanderbilt High Throughput Screening Facility, 2007)
Active and inactive are the calls of the source. The rule behind the calls is not given here.

Molecular target: Muscarinic acetylcholine receptor M4 (Mus musculus) (UniProt P32211)
Experiment: allosteric agonists of mouse M4 receptor, confirmation, cell-based (AID 643)
Details: HEK293 cells expressing M4, thallium flux fluorescence, 2 min; hits give high values

Sequence of Muscarinic acetylcholine receptor M4 (Mus musculus) (P32211 whole entry, looked up): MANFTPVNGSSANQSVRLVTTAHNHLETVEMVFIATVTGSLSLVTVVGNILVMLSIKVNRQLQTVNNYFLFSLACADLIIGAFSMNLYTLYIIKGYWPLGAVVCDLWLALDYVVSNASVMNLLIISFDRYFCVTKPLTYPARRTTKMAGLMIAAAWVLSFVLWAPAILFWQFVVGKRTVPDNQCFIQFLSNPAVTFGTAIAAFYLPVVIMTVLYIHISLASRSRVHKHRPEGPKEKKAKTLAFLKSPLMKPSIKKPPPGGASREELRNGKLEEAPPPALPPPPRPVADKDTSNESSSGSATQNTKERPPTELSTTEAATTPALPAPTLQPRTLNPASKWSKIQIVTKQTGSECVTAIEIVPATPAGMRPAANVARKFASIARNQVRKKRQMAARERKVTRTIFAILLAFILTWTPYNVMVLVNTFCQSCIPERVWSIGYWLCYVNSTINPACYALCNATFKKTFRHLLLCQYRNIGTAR

Which response slope does the source give for `Cc1ccc(Cl)cc1N1CCN(C(=O)CN2C(=O)c3cccc4cccc2c34)CC1` here?
The response slope was 0.00517 (inactive).

With `CCCCN(CCCC)c1nc2ccccc2nc1C(C#N)C(=O)NCCCOC` (stereo not given) as the molecule, how does the response slope read?
Its response slope is 0.00562 (inactive).

For `N#Cc1c(NC(=O)c2ccc(Br)o2)n(-c2ccccc2)c2nc3ccccc3nc12`, which response slope is on record?
Its response slope is 0.00921.

`CCOC(=O)CC(=O)CSc1nc(-c2cccnc2)ccc1C#N` was tested. Which response slope did it give?
Its response slope is 0.00405 (inactive).

How did the response slope turn out when `C/C(CC1(O)C(=O)N(Cc2ccccc2)c2ccccc21)=N\O` (stereo not given) was run?
The response slope was 0.00834.

`Cc1c(C#N)sc2nc(-c3ccccc3)nc(N3CCCC3)c12` was tested. Which response slope did it give?
The response slope was 0.0119.

With `CN(C)c1ccc(/C=C/C(O)=C2/C(=O)N(C)C3(C)CC2c2ccccc2O3)cc1` (stereo not given) as the molecule, how does the response slope read?
Its response slope is 0.00464 (inactive).

How did the response slope turn out when `C[C@H]1OC[C@@H](C[N+](C)(C)C)O1` was run?
Its response slope is 0.0167.

How did the response slope turn out when `CCCCNC(=O)Nc1ccnn1C1CCCCC1` was run?
The response slope was 0.00873.

Which response slope does the source give for `COc1ccc(CCn2c(=N)c(C(=O)NCc3ccco3)cc3c(=O)n4ccccc4nc32)cc1` here?
Its response slope is 0.000825 (inactive).

How did the response slope turn out when `S=c1nc(C2CC2)[nH]c2ccccc12` was run?
The response slope was -0.00904 (inactive).

How did the response slope turn out when `CCN(CC)c1ccc2cc(-c3nc4ccccc4[nH]3)c(=O)oc2c1` was run?
The response slope was 0.0191.

`CCn1c(SC(C)C(=O)O)nc2sc3c(c2c1=O)CCC3` (stereo not given) was tested. Which response slope did it give?
The response slope was 0.0132.

With `O=C(Nc1nc(=O)c2ccccc2s1)c1ccccc1` as the molecule, how does the response slope read?
Its response slope is 0.00981.

For `O=c1oc2c3c4c(cc2c(C(F)(F)F)c1CCN1CCOCC1)CCCN4CCC3`, which response slope is on record?
Its response slope is 0.0204.

`Cc1csc(NC(=O)c2sc3nc(-c4cccs4)ccc3c2N)n1` was tested. Which response slope did it give?
The response slope was 0.00327 (inactive).

`O=C(O)c1cc(O)c2c(c1)C(=O)c1cccc(O)c1C2=O` was tested. Which response slope did it give?
Its response slope is 0.00514 (inactive).

`Cc1cccc2sc(NC(=O)Cn3cccc3)nc12` was tested. Which response slope did it give?
Its response slope is 0.0102.

For `CCN(CC)C(=O)c1sc2nc(-c3cccs3)cc(-c3cccs3)c2c1N`, which response slope is on record?
The response slope was -0.000749 (inactive).

For `CC(=O)c1c(C)c2c(n1CCN(C)C)CCCC2`, which response slope is on record?
Its response slope is 0.00747.

How did the response slope turn out when `CCOc1ccccc1OCCCCN1CCCC1` was run?
Its response slope is 0.0043 (inactive).

Which response slope does the source give for `Cc1ccc(CNC(=O)c2cc3c(=O)n4ccccc4nc3n(CC3CCCO3)c2=N)cc1` (stereo not given) here?
Its response slope is 0.00307 (inactive).

`CN(C)C(CNC(=O)Nc1cccc(Cl)c1)c1cccnc1` (stereo not given) was tested. Which response slope did it give?
The response slope was 0.00144 (inactive).

How did the response slope turn out when `Fc1cccc2sc(Nc3nnc(-c4ccco4)o3)nc12` was run?
The response slope was 0.0206.

With `O=C(Nc1nc(-c2ccc(S(=O)(=O)N3CCCC3)cc2)cs1)C1COc2ccccc2O1` (stereo not given) as the molecule, how does the response slope read?
Its response slope is 0.00604 (inactive).

With `CCCCCCc1cc2cc(-c3nnc(-c4ccccc4O)o3)c(=O)oc2cc1O` as the molecule, how does the response slope read?
The response slope was 0.0548.

How did the response slope turn out when `CCOC(=O)C1=C[C@]2(CC)CCCN3CCc4c(n1c1ccccc41)[C@@H]32` was run?
Its response slope is 0.00841.

Which response slope does the source give for `COc1cc(/C=C/C(=O)CC(=O)/C=C/c2ccc(O)c(OC)c2)ccc1O` here?
Its response slope is 0.00973.

How did the response slope turn out when `Cc1ccc(-c2nn(-c3ccccc3)cc2/C=C(\C#N)c2cccc(C#N)c2)o1` was run?
The response slope was 0.0107.

For `Cc1nn(-c2ccc(Cl)cc2)c2sc(C(=O)N3CCN(c4ccccn4)CC3)cc12`, which response slope is on record?
Its response slope is 0.00468 (inactive).

With `Cc1ccc(S(=O)(=O)/C(C#N)=C/c2c(N3CCN(C)CC3)nc3c(C)cccn3c2=O)cc1` as the molecule, how does the response slope read?
The response slope was 0.00236 (inactive).

How did the response slope turn out when `O=C(Nc1nc(-c2ccc(S(=O)(=O)N3CCCCCC3)cc2)cs1)c1cccs1` was run?
The response slope was 0.0142.

Which response slope does the source give for `Clc1ccccc1OCCCCn1ccnc1` here?
Its response slope is 0.00392 (inactive).

`COc1cc(OC)cc(-c2nnc(Nc3nc4c(F)cccc4s3)o2)c1` was tested. Which response slope did it give?
The response slope was 0.0119.

For `CCOc1ccc(-n2c(O)c(C=Nc3ccc(N(CC)CC)cc3)c(=O)[nH]c2=O)cc1`, which response slope is on record?
Its response slope is -0.00673 (inactive).

Which response slope does the source give for `Cc1c2ccncc2c(C)c2c1[nH]c1ccccc12` here?
The response slope was 0.0125.

For `CC(=O)OC(C)C[N+](C)(C)C` (stereo not given), which response slope is on record?
Its response slope is 0.00597 (inactive).

For `CNS(=O)(=O)c1cccc(C(=O)OCC(=O)c2cc(C)n(-c3ccc4c(c3)OCO4)c2C)c1`, which response slope is on record?
The response slope was 0.00508 (inactive).

With `O=c1c2ccccc2nc(-c2cccc(Cl)c2)n1O` as the molecule, how does the response slope read?
The response slope was 0.00746.

How did the response slope turn out when `CCc1cccc(NC(=O)Cn2cc3c(n2)CCCC3)c1` was run?
The response slope was 0.00695 (inactive).

`COc1ccc(-c2noc(CSc3nc4ccccc4c(=O)n3-c3ccccc3)n2)cc1OC` was tested. Which response slope did it give?
The response slope was 0.00773.

With `Cc1ccccc1-n1nc(C)c2cc(C(=O)NCc3cccnc3)sc21` as the molecule, how does the response slope read?
Its response slope is 0.00964.

Which response slope does the source give for `CCOC(=O)c1cnn2c1[nH]c(=O)c1ccccc12` here?
The response slope was 0.00865.

Which response slope does the source give for `Cc1ccc(SCc2c(C#N)c3ccccc3n2C)cc1` here?
Its response slope is 0.00835.

How did the response slope turn out when `CCOC(=O)c1cc(-c2nnc(-c3ccc(Oc4ccccc4)cc3)o2)c(C)nc1C` was run?
Its response slope is 0.0113.
